Activity calls are given as the source filed them.
Key:
[1] = NIH-3T3 fibroblast cytotoxicity, dose response, cytotoxicity control, cell-based, fluorescence, Alamar Blue, secondary assay (AID 2327); assay type: functional;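 also: NIH-3T3 mouse fibroblasts cultured with fluconazole at 8 µg/mL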
[2] = fluconazole-exposed Candida albicans growth modulators – fluorescence, retest, confirmation (AID 2467); assay type: functional, cell-based
[3] = molecular target: Voltage-dependent T-type calcium channel subunit alpha-1H (Homo sapiens, UniProt O95180); assay type: functional;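 also: channel activity triggered by adding a high calcium stimulation buffer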
Voltage-dependent T-type calcium channel subunit alpha-1H, sequence (O95180 whole entry): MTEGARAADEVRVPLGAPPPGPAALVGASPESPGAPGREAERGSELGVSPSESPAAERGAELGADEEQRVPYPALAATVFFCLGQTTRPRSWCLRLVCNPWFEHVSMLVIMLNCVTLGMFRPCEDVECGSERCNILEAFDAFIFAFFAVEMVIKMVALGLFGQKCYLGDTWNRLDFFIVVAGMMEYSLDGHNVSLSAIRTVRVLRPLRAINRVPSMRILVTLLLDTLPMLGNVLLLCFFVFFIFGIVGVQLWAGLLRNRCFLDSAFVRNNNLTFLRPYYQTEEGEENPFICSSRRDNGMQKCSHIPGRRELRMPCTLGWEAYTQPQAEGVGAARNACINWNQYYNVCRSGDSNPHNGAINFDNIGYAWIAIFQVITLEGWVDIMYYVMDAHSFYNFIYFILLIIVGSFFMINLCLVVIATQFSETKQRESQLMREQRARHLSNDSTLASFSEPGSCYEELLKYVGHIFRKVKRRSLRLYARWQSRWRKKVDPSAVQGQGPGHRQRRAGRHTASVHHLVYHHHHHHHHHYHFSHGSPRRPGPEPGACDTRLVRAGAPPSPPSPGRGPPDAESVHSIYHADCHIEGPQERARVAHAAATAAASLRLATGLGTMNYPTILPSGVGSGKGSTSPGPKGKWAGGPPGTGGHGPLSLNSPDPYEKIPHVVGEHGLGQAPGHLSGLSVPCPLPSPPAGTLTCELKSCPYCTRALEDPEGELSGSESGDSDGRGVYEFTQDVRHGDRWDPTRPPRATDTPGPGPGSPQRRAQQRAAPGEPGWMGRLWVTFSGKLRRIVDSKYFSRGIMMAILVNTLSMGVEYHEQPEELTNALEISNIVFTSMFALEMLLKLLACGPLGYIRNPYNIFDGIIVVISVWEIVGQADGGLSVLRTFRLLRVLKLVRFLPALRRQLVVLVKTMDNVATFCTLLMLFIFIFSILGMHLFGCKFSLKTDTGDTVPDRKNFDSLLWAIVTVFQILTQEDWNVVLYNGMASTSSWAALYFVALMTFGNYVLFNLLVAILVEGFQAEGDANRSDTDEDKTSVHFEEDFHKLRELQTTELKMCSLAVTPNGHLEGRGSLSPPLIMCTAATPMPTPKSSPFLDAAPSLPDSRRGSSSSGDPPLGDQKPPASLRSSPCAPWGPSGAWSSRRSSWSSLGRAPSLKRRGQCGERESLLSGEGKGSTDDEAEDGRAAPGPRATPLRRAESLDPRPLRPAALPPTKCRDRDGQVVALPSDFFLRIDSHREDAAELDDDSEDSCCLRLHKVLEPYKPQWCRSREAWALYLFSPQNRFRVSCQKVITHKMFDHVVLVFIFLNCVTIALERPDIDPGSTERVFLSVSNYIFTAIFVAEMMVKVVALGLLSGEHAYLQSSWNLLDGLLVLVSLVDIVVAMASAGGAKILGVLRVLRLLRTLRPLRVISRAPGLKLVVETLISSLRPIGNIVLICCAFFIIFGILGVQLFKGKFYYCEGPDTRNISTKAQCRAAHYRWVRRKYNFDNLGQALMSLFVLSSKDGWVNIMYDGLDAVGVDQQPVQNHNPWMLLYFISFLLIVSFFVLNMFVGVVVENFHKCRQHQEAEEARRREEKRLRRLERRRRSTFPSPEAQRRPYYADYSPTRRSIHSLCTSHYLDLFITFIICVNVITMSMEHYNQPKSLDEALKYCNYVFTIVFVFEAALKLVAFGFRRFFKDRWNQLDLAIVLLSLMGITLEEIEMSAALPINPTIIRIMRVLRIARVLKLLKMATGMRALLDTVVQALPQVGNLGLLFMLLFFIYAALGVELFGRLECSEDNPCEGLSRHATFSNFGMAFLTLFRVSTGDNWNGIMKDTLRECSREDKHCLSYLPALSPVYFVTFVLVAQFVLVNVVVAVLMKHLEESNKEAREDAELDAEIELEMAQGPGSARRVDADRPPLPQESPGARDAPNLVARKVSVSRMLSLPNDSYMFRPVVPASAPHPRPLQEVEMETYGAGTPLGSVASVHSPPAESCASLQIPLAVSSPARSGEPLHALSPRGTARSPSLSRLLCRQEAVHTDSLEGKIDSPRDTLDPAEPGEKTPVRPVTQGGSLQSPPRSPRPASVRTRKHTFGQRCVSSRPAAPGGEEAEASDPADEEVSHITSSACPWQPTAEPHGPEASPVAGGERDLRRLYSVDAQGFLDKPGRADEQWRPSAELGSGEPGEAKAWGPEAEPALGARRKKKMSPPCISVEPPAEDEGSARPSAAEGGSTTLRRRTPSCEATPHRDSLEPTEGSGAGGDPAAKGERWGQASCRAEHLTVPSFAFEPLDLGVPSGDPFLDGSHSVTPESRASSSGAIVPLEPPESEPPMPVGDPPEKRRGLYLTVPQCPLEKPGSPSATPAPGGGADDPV

[4] = molecular target: T1, Type-1 angiotensin II receptor (Homo sapiens, UniProt P30556); experiment: antagonism of angiotensin II type 1 receptor – cell-based, uHTS hits, selectivity assay for APJ receptor antagonist project, dose response (AID 463214); assay type: functional;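 also: antagonist potency against angiotensin II stimulated AT1 response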
T1 sequence (P30556 whole entry): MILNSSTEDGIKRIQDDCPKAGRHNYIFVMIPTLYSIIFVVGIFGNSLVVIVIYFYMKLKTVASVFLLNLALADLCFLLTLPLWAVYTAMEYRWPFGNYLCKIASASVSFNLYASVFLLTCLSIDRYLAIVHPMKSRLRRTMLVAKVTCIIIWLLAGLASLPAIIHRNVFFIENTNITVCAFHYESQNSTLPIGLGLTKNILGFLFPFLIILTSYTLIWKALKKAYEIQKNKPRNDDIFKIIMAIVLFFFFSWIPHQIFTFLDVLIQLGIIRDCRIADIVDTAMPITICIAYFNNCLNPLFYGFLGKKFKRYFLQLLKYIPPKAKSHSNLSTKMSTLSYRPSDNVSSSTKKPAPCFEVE

Beta-galactosidase = Beta-galactosidase (Escherichia coli, UniProt Q8VNN2); experiment: PubChem AID 485352; assay type: functional
Beta-galactosidase, sequence (Q8VNN2 whole entry): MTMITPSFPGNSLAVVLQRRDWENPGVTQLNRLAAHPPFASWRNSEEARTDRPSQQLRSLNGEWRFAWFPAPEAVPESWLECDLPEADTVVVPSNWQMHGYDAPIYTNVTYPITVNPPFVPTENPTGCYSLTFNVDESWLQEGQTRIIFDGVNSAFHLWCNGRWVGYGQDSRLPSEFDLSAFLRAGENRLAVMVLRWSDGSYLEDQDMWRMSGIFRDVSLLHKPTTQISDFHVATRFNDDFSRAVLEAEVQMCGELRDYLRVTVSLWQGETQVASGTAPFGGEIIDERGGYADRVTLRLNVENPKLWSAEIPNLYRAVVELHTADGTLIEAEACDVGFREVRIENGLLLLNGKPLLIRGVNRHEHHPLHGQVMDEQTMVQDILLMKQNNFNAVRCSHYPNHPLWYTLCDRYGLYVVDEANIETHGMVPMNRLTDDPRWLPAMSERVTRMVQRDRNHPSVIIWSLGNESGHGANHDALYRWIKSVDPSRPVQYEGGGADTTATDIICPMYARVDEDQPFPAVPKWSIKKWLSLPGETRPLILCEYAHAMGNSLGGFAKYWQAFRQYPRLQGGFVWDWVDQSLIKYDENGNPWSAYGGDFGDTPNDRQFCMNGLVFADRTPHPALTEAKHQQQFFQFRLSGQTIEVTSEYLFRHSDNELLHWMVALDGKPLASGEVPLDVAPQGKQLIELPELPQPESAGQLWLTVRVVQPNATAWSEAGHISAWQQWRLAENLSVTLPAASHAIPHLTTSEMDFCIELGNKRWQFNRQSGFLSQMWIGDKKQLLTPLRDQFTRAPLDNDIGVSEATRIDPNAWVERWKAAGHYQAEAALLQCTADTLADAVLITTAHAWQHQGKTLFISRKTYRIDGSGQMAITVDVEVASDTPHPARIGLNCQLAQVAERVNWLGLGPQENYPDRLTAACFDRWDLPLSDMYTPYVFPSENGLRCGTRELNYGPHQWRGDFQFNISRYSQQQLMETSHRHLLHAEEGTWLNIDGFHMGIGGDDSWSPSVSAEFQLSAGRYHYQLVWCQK

[5] = molecular target: FAD-linked sulfhydryl oxidase ALR (Homo sapiens, UniProt P55789); experiment: ALR-catalysed DTT oxidation blockers – biochemical, H2O2 detection, luminescence, cherry-pick, dose response (AID 493248)
FAD-linked sulfhydryl oxidase ALR, sequence (P55789 whole entry): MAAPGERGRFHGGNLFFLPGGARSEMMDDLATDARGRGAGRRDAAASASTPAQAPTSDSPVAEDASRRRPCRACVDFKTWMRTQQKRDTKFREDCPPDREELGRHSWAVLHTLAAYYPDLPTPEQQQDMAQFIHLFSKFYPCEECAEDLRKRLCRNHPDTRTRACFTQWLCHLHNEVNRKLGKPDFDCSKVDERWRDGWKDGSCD

[6] = A cytotoxicity screen of small molecule inhibitors of the PhoP region in Salmonella typhi identified in the primary screen. [Related pubchem assays: 1850, 1864, 1985 ]; assay type: functional
Cytochrome P450 3A4 = Cytochrome P450 3A4 (Homo sapiens, UniProt P08684); details: Potency;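 also: confirmatory qHTS run detecting inhibitors and substrates of CYP3A4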
Cytochrome P450 3A4, sequence (P08684 whole entry): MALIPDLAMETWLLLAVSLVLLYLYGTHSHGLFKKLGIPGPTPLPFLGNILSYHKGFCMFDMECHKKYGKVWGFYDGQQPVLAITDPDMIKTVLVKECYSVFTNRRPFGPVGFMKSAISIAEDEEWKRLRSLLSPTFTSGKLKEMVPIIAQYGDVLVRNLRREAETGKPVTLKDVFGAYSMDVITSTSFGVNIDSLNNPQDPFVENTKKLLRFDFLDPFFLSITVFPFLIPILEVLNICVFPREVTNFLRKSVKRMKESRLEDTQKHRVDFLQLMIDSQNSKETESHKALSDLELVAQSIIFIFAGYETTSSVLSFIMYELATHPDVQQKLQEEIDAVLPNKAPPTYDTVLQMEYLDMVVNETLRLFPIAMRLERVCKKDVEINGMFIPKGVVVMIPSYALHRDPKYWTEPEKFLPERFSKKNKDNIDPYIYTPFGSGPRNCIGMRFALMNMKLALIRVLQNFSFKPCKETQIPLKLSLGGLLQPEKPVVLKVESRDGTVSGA

[7] = molecular target: T2, Endoribonuclease toxin MazF (Escherichia coli K-12, UniProt P0AE70); experiment: substrate-only fluorescence increase artefacts – biochemical, single-stranded RNase substrate, counter-screen for MazEF activator project, dose response (AID 588502); assay type: functional
T2 sequence (P0AE70 whole entry): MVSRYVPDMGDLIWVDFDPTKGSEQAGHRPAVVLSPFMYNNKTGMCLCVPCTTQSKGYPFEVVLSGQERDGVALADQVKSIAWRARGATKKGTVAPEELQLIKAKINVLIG

[8] = molecular target: T3, Zinc finger protein mex-5 (Caenorhabditis elegans, UniProt Q9XUB2); experiment: potency of MEX-5 RNA-binding blockers – biochemical, C. elegans, fluorescence polarization, dose response (AID 1960)
T3 sequence (Q9XUB2 whole entry): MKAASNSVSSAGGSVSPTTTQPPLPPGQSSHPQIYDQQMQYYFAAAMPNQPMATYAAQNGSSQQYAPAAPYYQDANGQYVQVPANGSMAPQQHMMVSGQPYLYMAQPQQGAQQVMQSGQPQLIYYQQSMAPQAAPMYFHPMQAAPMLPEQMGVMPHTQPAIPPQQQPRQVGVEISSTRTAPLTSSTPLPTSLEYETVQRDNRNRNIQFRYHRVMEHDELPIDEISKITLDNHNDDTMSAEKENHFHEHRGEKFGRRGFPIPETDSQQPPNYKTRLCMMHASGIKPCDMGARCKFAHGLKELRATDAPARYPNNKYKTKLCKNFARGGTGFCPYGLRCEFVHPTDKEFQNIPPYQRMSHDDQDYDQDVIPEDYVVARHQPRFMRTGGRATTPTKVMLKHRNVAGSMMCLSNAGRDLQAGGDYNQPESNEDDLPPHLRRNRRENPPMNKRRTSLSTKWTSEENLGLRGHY

[9] = molecular target: T2, Endoribonuclease toxin MazF; experiment: activation of MazEF endoribonuclease cleavage – biochemical, fluorescence, single-stranded RNA substrate, uHTS hits, dose response (AID 588481); assay type: functional
[10] = molecular target: T4, RNA-binding protein pos-1 (Caenorhabditis elegans, UniProt G5EF15); experiment: disruptors of C. elegans POS-1 RNA interaction – biochemical, fluorescence polarization, dose response (AID 1964);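 also: purified POS-1 fused to maltose binding protein made in E. coli; potency of compounds blocking POS-1 binding to fluorescent RNA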
T4 sequence (G5EF15 whole entry): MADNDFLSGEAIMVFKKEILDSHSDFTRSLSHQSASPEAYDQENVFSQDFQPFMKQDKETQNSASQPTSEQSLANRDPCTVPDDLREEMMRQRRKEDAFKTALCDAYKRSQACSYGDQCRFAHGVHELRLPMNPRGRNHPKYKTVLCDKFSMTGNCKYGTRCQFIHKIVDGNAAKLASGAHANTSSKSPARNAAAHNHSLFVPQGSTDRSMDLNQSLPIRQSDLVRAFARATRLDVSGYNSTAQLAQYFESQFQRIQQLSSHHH

Vero = experiment: viability of Vero cells under compound – cytotoxicity control for flavivirus capping enzyme inhibitors (AID 588742); assay type: functional; details: Chlorocebus sabaeus
H9c2 = experiment: cells; assay type: functional, cell-based; details: Rattus norvegicus, H9c2, Myocardium
[11] = viability of uninfected HEp-2 cells – cell-based, HTS, cytotoxicity control for RSV inhibitor project, dose response (AID 2410); assay type: functional; details: human respiratory syncytial virus
[12] = molecular target: Glyceraldehyde-3-phosphate dehydrogenase (Homo sapiens, UniProt P04406)
Glyceraldehyde-3-phosphate dehydrogenase, sequence (P04406 whole entry): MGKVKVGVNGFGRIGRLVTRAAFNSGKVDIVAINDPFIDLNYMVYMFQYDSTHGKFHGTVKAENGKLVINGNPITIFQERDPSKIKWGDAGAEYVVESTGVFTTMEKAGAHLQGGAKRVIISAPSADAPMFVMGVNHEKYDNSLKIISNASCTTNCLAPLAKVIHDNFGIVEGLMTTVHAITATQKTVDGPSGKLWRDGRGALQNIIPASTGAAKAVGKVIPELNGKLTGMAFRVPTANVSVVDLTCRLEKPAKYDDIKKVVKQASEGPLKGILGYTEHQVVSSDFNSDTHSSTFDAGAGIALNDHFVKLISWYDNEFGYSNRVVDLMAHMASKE

[13] = molecular target: T5, DNA repair protein RAD52 homolog (Homo sapiens, UniProt P43351); assay type: functional, biochemical
T5 sequence (P43351 whole entry): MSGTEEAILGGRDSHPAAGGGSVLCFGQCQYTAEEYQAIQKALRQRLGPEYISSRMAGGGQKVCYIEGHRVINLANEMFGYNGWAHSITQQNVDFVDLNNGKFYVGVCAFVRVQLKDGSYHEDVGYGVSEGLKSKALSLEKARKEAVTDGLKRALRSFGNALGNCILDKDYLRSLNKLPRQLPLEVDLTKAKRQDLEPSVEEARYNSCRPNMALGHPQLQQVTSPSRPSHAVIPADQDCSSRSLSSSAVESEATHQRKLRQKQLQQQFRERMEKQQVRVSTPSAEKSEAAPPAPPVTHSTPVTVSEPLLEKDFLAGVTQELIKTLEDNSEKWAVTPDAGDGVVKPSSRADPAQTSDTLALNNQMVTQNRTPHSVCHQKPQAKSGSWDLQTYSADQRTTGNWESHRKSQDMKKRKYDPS

[14] = microbe, parasite or virus in culture; assay type: functional; details: Mycobacterium tuberculosis
SN12K1 = experiment: cells; assay type: functional; details: Homo sapiens
P388/ADR = experiment: cells; assay type: functional; details: Mus musculus
P388 = experiment: cells; assay type: functional; details: Mus musculus
[15] = system: Streptococcus sp. 'group A'; experiment: Streptococcus pyogenes SK(-)GAS viability under kanamycin – luminescence, BacTiterGlo, confirmation, counter-screen for streptokinase expression inhibitor project, dose response (AID 1900); assay type: functional, organism-based
Streptococcus = experiment: GAS UMAA2166 growth inhibition – luminescence, BacTiterGlo, counter-screen for streptokinase expression inhibitor project, dose response (AID 1915); assay type: functional, organism-based;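 also: potency for reduction of bacterial viability or growth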

## N#CC1CC(c2ccccc2)=NN1c1ccccc1[N+](=O)[O-] (configuration not stated)
[1]
  EC50: > 160 µM (inactive)
[2]
  EC50: > 38 µM (not active)

## CC(Oc1ccccc1)c1ccnn1S(=O)(=O)c1ccccc1 (configuration not stated)
[3]
  EC50: 50.8 µM (active)

## CCn1c(CNc2ccccc2Cl)nnc1SCC(=O)OC1CCCCC1
[3]
  EC50: 3.84 µM (active)

## CC1=NN(c2ccc(C)cc2)C(=O)/C1=C/c1ccc(-c2cc([N+](=O)[O-])ccc2O)o1
[4]
  IC50: > 40 µM (not active)
Beta-galactosidase
  EC50: > 40 µM (inactive)

## COc1cccc(/N=C2\NC(=O)/C(=C/c3cc([N+](=O)[O-])ccc3O)S2)c1
[4]
  IC50: > 40 µM (not active)
Beta-galactosidase
  EC50: > 40 µM (inactive)

## O=C(COC(=O)c1ccco1)c1ccc(S(=O)(=O)N2CCCCC2)cc1
[4]
  IC50: 16.5 µM (active)
Beta-galactosidase
  EC50: > 40 µM (inactive)

## Cc1nn(CCC(=O)NN=C(S)Nc2ccc(F)cc2)c(C)c1Br
[4]
  IC50: > 40 µM (not active)
Beta-galactosidase
  EC50: > 40 µM (inactive)

## Cc1cc(NS(=O)(=O)c2ccc(NC(=O)Nc3cccc(Cl)c3)cc2)no1
[5]
  AC50: 0.098 µM (active)
[6]
  EC50: > 50 µM (active)

## Cc1ccc(S(=O)(=O)NC2CCCCC2)cc1
Cytochrome P450 3A4
  AC50: 20 µM (inconclusive)

## CSc1ncc(Cl)c(C(=O)C(C#N)c2nc(O)c3cc(C)cc(C)c3n2)n1 (configuration not stated)
[1]
  EC50: 18.3 µM (active)
[2]
  EC50: 2.48 µM (active)

## Cc1cc(NC(=O)/C(C#N)=C/c2ccc(-c3ccc(SC(F)F)cc3)o2)n(-c2ccccc2)n1
[7]
  EC50: 48.9 µM (inactive)
[8]
  EC50: 25.8 µM (active)
[9]
  EC50: > 99 µM (inactive)
[10]
  EC50: 22.9 µM (active)

## Cc1cc(NC(=O)c2cccc(Oc3ccccc3)c2)[nH]n1
[1]
  EC50: > 150 µM (inactive)
[2]
  EC50: 1.87 µM (active)

## O=C(CSc1nnc(-c2ccccc2)n1Cc1ccco1)NCc1ccc2c(c1)OCO2
[3]
  EC50: 12.1 µM (active)

## CNC(=O)/C(C#N)=C/c1c(N(Cc2ccccc2)Cc2ccccc2)nc2ccccn2c1=O
Vero
  CC50: > 40 µM (active)
H9c2
  IC50: > 79 µM (inactive)

## Cc1ccc2oc(C(=O)Nc3ccc(S(=O)(=O)Nc4onc(C)c4C)cc3)c(C)c2c1
[11]
  CC50: 25.9 µM (active)
cells
  IC50: 23.7 µM (active)

## Cc1cccc(N2C(=O)C(Cl)=C(N3CCN(c4ccccc4)CC3)C2=O)c1
[12]
  IC50: > 50 µM (inconclusive)

## COc1ccccc1C(=O)Nc1ccc(NC(=O)c2ccco2)c(C)c1
[3]
  EC50: 6.29 µM (active)

## COc1ccc(N(C(=O)c2cccnc2)S(=O)(=O)c2ccc(F)cc2)cc1
[6]
  EC50: > 50 µM (active)

## COc1ccc(OC)c(NC(=O)c2c3c(nc4ccccc24)CCC3)c1
[1]
  EC50: > 150 µM (inactive)
[2]
  EC50: 2.17 µM (active)

## Clc1ccc(C2[C@H]3CN(Cc4ccc(-c5ccccc5)cc4)[C@H](c4ccccc4)C34CC2(c2ccccc2)C4)cn1 (some centres not stated)
Cytochrome P450 3A4
  AC50: 15.8 µM (inconclusive)

## O=c1oc2ccccc2cc1-c1nc(-c2cccs2)cs1
[7]
  EC50: > 99 µM (inactive)
[8]
  EC50: 5.43 µM (active)
[9]
  EC50: > 99 µM (inactive)
[10]
  EC50: 15.6 µM (inconclusive)

## CC(=O)c1ccc(N2CCN(Cc3nc4ccccc4[nH]3)CC2)cc1
[11]
  CC50: > 50 µM (active)
cells
  IC50: 10.8 µM (active)

## NS(=O)(=O)c1ccc(/N=C/C2=C(O)c3ccccc3C2=O)cc1
[12]
  IC50: > 100 µM (not active)

## COc1ccc(C)cc1NC(=O)C1CCN(S(=O)(=O)c2c(C)noc2C)CC1
[6]
  EC50: > 50 µM (active)

## NS(=O)(=O)c1ccc(CNC(=O)COc2ccc3c4c(c(=O)oc3c2)CCCC4)cc1
[7]
  EC50: > 99 µM (inactive)
[9]
  EC50: > 99 µM (inactive)

## C#CCN1C(=O)S/C(=C\c2ccc(N3CCOCC3)cc2C)C1=O
[7]
  EC50: > 99 µM (inactive)
[9]
  EC50: > 99 µM (inactive)

## Cc1cc(C)c2nc3nc(C)c(C)cc3c(N)c2c1
[13]
  AC50: 1.56 µM (active)

## CC(=O)OCC1OC(C#CCC2CCCCC2)C=CC1OC(C)=O (configuration not stated)
Cytochrome P450 3A4
  AC50: 3.16 µM (inconclusive)

## CCc1ccccc1Nc1nc(N)nc(COC(=O)c2cccn2C)n1
[11]
  CC50: 17.3 µM (active)
cells
  IC50: 13 µM (active)

## Cc1cccc2c1N(CCCOc1ccccc1)C(=O)C2=O
[4]
  IC50: > 40 µM (not active)
Beta-galactosidase
  EC50: > 40 µM (inactive)

## Cc1ccc(C(=O)N/C(=C\c2ccc(C(C)C)cc2)C(=O)NCCCN2CCOCC2)cc1
cells
  IC50: 14.6 µM (active)

## Cc1ccc(C(=O)N/C(=C/c2ccc(-c3cc(C(F)(F)F)ccc3Cl)o2)C(=O)NCc2cccnc2)cc1
[1]
  EC50: 21.4 µM (active)
[14]
  CC50: > 40 µM (active)
[2]
  EC50: > 38 µM (not active)

## O=[N+]([O-])c1cc(C(F)(F)F)ccc1NCC1CCCO1 (configuration not stated)
[7]
  EC50: > 99 µM (inactive)
[9]
  EC50: > 99 µM (inactive)

## COc1ccc(N(C(=O)Cn2cnc3ccccc32)C(C(=O)NC2CCCCC2)c2ccccc2)cc1 (configuration not stated)
[3]
  EC50: 4.82 µM (active)

## O=C(/C=C/c1ccc(Cl)cc1)c1cccs1
Cytochrome P450 3A4
  AC50: 25.1 µM (inconclusive)

## CC(Nc1cccc2ccccc12)C(=O)N/N=C/c1ccc([N+](=O)[O-])cc1 (configuration not stated)
[11]
  CC50: 21.8 µM (active)
cells
  IC50: 22.1 µM (active)

## Clc1ccc2c(NCc3ccccn3)ccnc2c1
[6]
  EC50: > 50 µM (active)

## COc1ccc(F)cc1S(=O)(=O)Nc1cccnc1
[12]
  IC50: > 100 µM (not active)

## CCC1(c2ccc(N)cc2)CCC(=O)NC1=O (configuration not stated) [AMINOGLUTETHIMIDE]
SN12K1
  GI50: 1690 µM (inactive)
P388/ADR
  GI50: 1610 µM (inactive)
P388
  GI50: 2390 µM (inactive)
Cytochrome P450 3A4
  AC50: 31.6 µM (inconclusive)

## O=C(O)c1cc(O)c2c(c1)C(=O)c1cc(O)cc(O)c1C2=O [EMODIC ACID]
Cytochrome P450 3A4
  AC50: 15.8 µM (inconclusive)

## CC(C)=CCc1c2c(c3occ(-c4ccc(O)cc4)c(=O)c3c1O)C=CC(C)(C)O2 [OSAJIN]
[15]
  EC50: 1.11 µM (active)
Streptococcus
  EC50: 1.47 µM (active)
Cytochrome P450 3A4
  AC50: 25.1 µM (inconclusive)

— ChEMBL document CHEMBL1201862, “PubChem BioAssay data set” (2004)
